Measured values reported in patent US11214803B2, “Modulators of YAP1 expression” (Ionis Pharmaceuticals, Inc., priority 2019, dated 2022).
Strand notation (5' to 3'): a small letter for the sugar, then the base; units joined by * are phosphorothioate-linked, units joined directly phosphodiester-linked; [ ] holds rarer units or linkages, { } end groups; capitals alone tell only the bases. e = 2'-O-(2-methoxyethyl) (MOE); k = constrained ethyl (cEt); [5mC] = 5-methylcytosine; d = 2'-deoxy (DNA); m = 2'-O-methyl

test system: Yap1 mRNA; experiment: Antisense inhibition of human Yap1 in SNU-449 cells by modified oligonucleotides, single dose (Example 5, RTS36584); format: cell-based; conditions: Table 39; SNU-449 cells, 10,000 cells per well, free uptake, 2,000 nM oligonucleotide, approx. 48 hours; RTS36584; normalized to RIBOGREEN; Yap1 mRNA relative to untreated control
Summary of the method: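 Each modified oligonucleotide is applied by free uptake to SNU-449 cultures at 2,000 nM, and total RNA is harvested around 48 h later. Yap1 transcript, quantified with the RTS36584 set and corrected for RIBOGREEN RNA content, is given as % UTC. Asterisks mark sequences overlapping the amplicon.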

In order of falling “YAP1 (% UTC)” value:
1. 1198417 (k[5mC]*dA*dG*dA*dT*dT*dT*dA*dG*dG*dA*kT*eG*k[5mC]*eA*kT; antisense) [Compound 1198417]  40 % UTC
2. 1198405 (k[5mC]*dT*dT*dT*dG*dG*dA*dA*dG*dA*dT*k[5mC]*eT*kG*eA*kA; antisense) [Compound 1198405]  36 % UTC
3. 1198402 (kG*dG*dA*dA*dG*dA*dT*d[5mC]*dT*dG*dA*kA*eA*k[5mC]*eT*k[5mC]; antisense) [Compound 1198402]  32 % UTC
4. 1198377 (kA*dT*dG*dG*dA*dA*dA*dT*dT*dG*dT*k[5mC]*eT*k[5mC]*eA*kT; antisense) [Compound 1198377]  30 % UTC
5. 1198372 (kA*dA*dT*dT*dG*dT*d[5mC]*dT*d[5mC]*dA*dT*kG*e[5mC]*k[5mC]*eT*kT; antisense) [Compound 1198372]  21 % UTC

same assay, conditions: Table 40 (separate experiment); SNU-449 cells, 10,000 cells per well, free uptake, 2,000 nM oligonucleotide, approx. 48 hours; RTS36584; normalized to RIBOGREEN; Yap1 mRNA relative to untreated control

In order of rising “YAP1 (% UTC)” value:
1. 1198730 (kT*eA*kT*dA*dT*dT*dA*dG*dA*dG*dT*dA*eT*eG*kT*kG; antisense) [Compound 1198730]  57 % UTC
2. 1198751 (kT*eT*kG*dG*dA*dA*dG*dA*dT*d[5mC]*dT*dG*eA*eA*kA*k[5mC]; antisense) [Compound 1198751]  76 % UTC

same assay, conditions: Table 41; SNU-449 cells, 10,000 cells per well, free uptake, 2,000 nM modified oligonucleotide, approximately 48 hours; RTS36584; normalized to RIBOGREEN; Yap1 mRNA relative to untreated control cells

In the case of “1198628 (TGTCTCATGCCTTATA; modified gapmer, chemistry not fully specified) [Compound 1198628]”, the “YAP1 (% UTC)” value is reported as 27 % UTC.

same assay, conditions: Table 42 (separate experiment); SNU-449 cells, 10,000 cells per well, free uptake, 2,000 nM modified oligonucleotide, approximately 48 hours; RTS36584; normalized to RIBOGREEN; Yap1 mRNA relative to untreated control cells

In order of falling “YAP1 (% UTC)” value:
1. 1198681 (antisense T_{ks}C_{ks}T_{ds}T_{ds}A_{ds}T_{ds}A_{ds}T_{ds}G_{ds}G_{ds}T_{ds}T_{ds}T_{ks}T_{es}G_{ks}T_{e}; as printed in the source, key not given here) [Compound 1198681]  54 % UTC
2. 1198206 (kA*kT*dA*dT*dG*dG*dA*dA*dA*dT*dT*eG*eT*e[5mC]*kT*k[5mC]; antisense) [Compound 1198206]  43 % UTC
3. 1198201 (kA*kA*dA*dT*dT*dG*dT*d[5mC]*dT*d[5mC]*dA*eT*eG*e[5mC]*k[5mC]*kT; antisense) [Compound 1198201]  34 % UTC
4. 1198700 (kT*kA*dA*dA*dG*dT*dG*dT*dA*dT*dG*dT*k[5mC]*eA*kG*eA; antisense) [Compound 1198700]  26 % UTC

same assay, conditions: Table 43 experiment; SNU-449 cells, 10,000 cells per well, free uptake, 2,000 nM, approximately 48 hours; RTS36584; Yap1 mRNA normalized to RIBOGREEN, relative to untreated control cells

In order of falling “YAP1 (% UTC)” value:
1. 119825 4 (kA*kA*d[5mC]*dT*d[5mC]*dT*dT*dA*dT*dA*dT*eG*eG*eT*kT*kT; antisense)  95 % UTC
2. 1198217 (kG*kG*dT*dA*dT*dA*dA*d[5mC]*dT*dG*dG*eG*e[5mC]*eA*kA*kA; antisense) [Compound 1198217]  57 % UTC
3. 1198258 (kA*kT*dA*dT*dT*dG*d[5mC]*dA*dA*dT*d[5mC]*eT*eG*eT*k[5mC]*kT; antisense) [Compound 1198258]  52 % UTC
4. 1198276 (kA*kG*dT*dA*dA*dG*dG*dT*dT*dT*d[5mC]*e[5mC]*e[5mC]*eA*kG*kA; antisense) [Compound 1198276]  52 % UTC
5. 1198219 (kG*kA*dG*dG*dT*dA*dT*dA*dA*d[5mC]*dT*eG*eG*eG*k[5mC]*kA; antisense) [Compound 1198219]  22 % UTC
6. 1198268 (kA*kA*dG*dT*dG*dT*dA*dT*dG*dT*d[5mC]*eA*eG*eA*kA*kG; antisense) [Compound 1198268]  11 % UTC

same assay, conditions: Table 44 experiment; SNU-449 cells, 10,000 cells per well, free uptake, 2,000 nM, approximately 48 hours; RTS36584; Yap1 mRNA normalized to RIBOGREEN, relative to untreated control cells

In the case of “1198900 (kA*kG*dA*dG*dT*dA*dT*dG*dT*dG*dG*k[5mC]*dA*kA*dT*kA; antisense) [Compound 1198900]”, the “YAP1 (% UTC)” value is reported as 11 % UTC.

same assay, conditions: Table 45; Yap1 mRNA as percent of untreated control, SNU-449 cells, single dose

In order of falling “YAP1 (% UTC)” value:
1. 1198914 (kT*kT*dT*dT*dA*d[5mC]*dA*dT*dT*dA*dG*kG*dA*kA*d[5mC]*kA; antisense) [Compound 1198914]  68 % UTC
2. 1198916 (kA*k[5mC]*dT*dT*dT*dT*dA*d[5mC]*dA*dT*dT*kA*dG*kG*dA*kA; antisense) [Compound 1198916]  59 % UTC
3. 1198958 (kT*kG*dT*dA*dT*dG*dT*d[5mC]*dA*dG*dA*kA*dG*kA*dG*kT; antisense) [Compound 1198958]  12 % UTC

same assay, conditions: Table 46; Yap1 mRNA as percent of untreated control, SNU-449 cells, single dose

In order of falling “YAP1 (% UT)” value:
1. 1198966 (kA*kA*d[5mC]*dT*dT*dT*dA*dA*dA*dG*dT*kG*dT*kA*dT*kG) [Compound 1198966]  78 % UT
2. 1198830 (kA*k[5mC]*dT*dT*dT*dT*dA*d[5mC]*dA*dT*dT*kA*eG*kG*eA*kA) [Compound 1198830]  37 % UT
3. 1198832 (kG*k[5mC]*dA*d[5mC]*dT*dT*dT*dT*dA*d[5mC]*dA*kT*eT*kA*eG*kG; antisense) [Compound 1198832]  20 % UT

same assay, conditions: Table 48; Yap1 mRNA level relative to untreated control; modified oligonucleotides targeting SEQ ID NO.: 1 and 2

In order of rising “YAP1 (% UT)” value:
1. 1198301 (kT*k[5mC]*kT*dA*dT*dA*dT*dT*dA*dG*dA*dG*kT*eA*kT*eG; antisense) [Compound 1198301]  43 % UT
2. 1198292 (kA*kT*kA*dT*dG*dG*dA*dA*dA*dT*dT*dG*kT*e[5mC]*kT*e[5mC]; antisense) [Compound 1198292]  58 % UT

same assay, conditions: Table 49; Yap1 mRNA level relative to untreated control; modified oligonucleotides targeting SEQ ID NO.: 1 and 2

In order of falling “YAP1 (% UT)” value:
1. 1198558 (antisense kT*kA*kT*dA*dT*dT*dA*dG*dA*dG*dT*dA*kT*kG*kT*eG) [Compound 1198558]  46 % UT
2. 1198359 (k[5mC]*kT*kT*dT*dA*dA*dA*dG*dT*dG*dT*dA*kT*eG*kT*e[5mC]; antisense) [Compound 1198359]  28 % UT
3. 1198362 (kA*kG*kT*dA*dA*dG*dG*dT*dT*dT*d[5mC]*d[5mC]*k[5mC]*eA*kG*eA; antisense) [Compound 1198362]  24 % UT
4. 1198354 (kA*kA*kG*dT*dG*dT*dA*dT*dG*dT*d[5mC]*dA*kG*eA*kA*eG; antisense) [Compound 1198354]  6 % UT

same assay, conditions: Table 50; Yap1 mRNA remaining as percent of untreated control (UT), SNU-449 cells, single dose

In order of rising “YAP1 (% UT)” value:
1. 1198611 (antisense kA*kG*kT*dG*dT*dA*dT*dG*dT*d[5mC]*dA*dG*kA*kA*kG*eA) [Compound 1198611]  7 % UT
2. 1198585 (antisense kT*kT*kT*dA*dG*dG*dA*dT*dG*d[5mC]*dA*dT*kG*kG*kT*eT) [Compound 1198585]  22 % UT
3. 1095435 (antisense kA*k[5mC]*kT*dG*dA*dG*dG*dT*dA*dT*dA*dA*k[5mC]*kT*kG*eG) [Compound 1095435]  39 % UT
4. 1197286 (kA*kT*kA*dT*mU*dA*dG*dA*dG*dT*dA*dT*dG*kT*kG*kG) [Compound 1197286]  43 % UT

same assay, conditions: Table 51; Yap1 mRNA remaining as percent of untreated control (UT), SNU-449 cells, single dose

In order of rising “YAP1 (% UT)” value:
1. 1197256 (antisense kA*kT*kT*dT*mA*dG*dG*dA*dT*dG*d[5mC]*dA*dT*kG*kG*kT) [Compound 1197256]  31 % UT
2. 1197255 (antisense kT*kT*kT*dA*mG*dG*dA*dT*dG*d[5mC]*dA*dT*dG*kG*kT*kT) [Compound 1197255]  38 % UT
3. 1197298 (kA*kT*kA*dG*mU*dG*d[5mC]*dT*dT*dT*dG*dG*dA*kA*kG*kA) [Compound 1197298]  46 % UT
4. 1197301 (AGATUTAGGATGCATG; chemistry not fully specified) [Compound 1197301]  71 % UT

same assay, conditions: Table 52; Yap1 mRNA, modified oligonucleotides targeting SEQ ID NO: 1 and 2

In order of falling “YAP1 (% UT)” value:
1. 1200842 (k[5mC]*kT*k[5mC]*dT*dT*mA*dT*dA*dT*dG*dG*dT*dT*kT*kT*kG; antisense) [Compound 1200842]  168 % UT
2. 1200835 (k[5mC]*kA*kG*dA*dT*mU*dT*dA*dG*dG*dA*dT*dG*k[5mC]*kA*kT; antisense) [Compound 1200835]  82 % UT
3. 1200814 (kA*k[5mC]*kT*dT*dT*mU*dA*d[5mC]*dA*dT*dT*dA*dG*kG*kA*kA; antisense) [Compound 1200814]  73 % UT
4. 1200830 (kT*kT*kA*dG*dG*mA*dT*dG*d[5mC]*dA*dT*dG*dG*kT*kT*kT; antisense) [Compound 1200830]  50 % UT
5. 1200791 (kA*kT*kG*dG*dA*mA*dA*dT*dT*dG*dT*d[5mC]*dT*k[5mC]*kA*kT; antisense) [Compound 1200791]  46 % UT
6. 1200846 (kG*kA*k[5mC]*dA*dA*mC*dT*d[5mC]*dT*dT*dA*dT*dA*kT*kG*kG; antisense) [Compound 1200846]  38 % UT
7. 1200856 (kT*kG*kT*dA*dT*mG*dT*d[5mC]*dA*dG*dA*dA*dG*kA*kG*kT; antisense) [Compound 1200856]  29 % UT
8. 1200859 (kA*kA*kA*dG*dT*mG*dT*dA*dT*dG*dT*d[5mC]*dA*kG*kA*kA; antisense) [Compound 1200859]  28 % UT
9. 1200820 (kG*kG*kA*dA*dG*mA*dT*d[5mC]*dT*dG*dA*dA*dA*k[5mC]*kT*k[5mC]; antisense) [Compound 1200820]  24 % UT

same assay, conditions: Yap1 mRNA, percent of untreated control; modified oligonucleotides targeting SEQ ID NO: 1 and 2; Table 47

For “1197182 (antisense kT*kT*kT*dT*dA*d[5mC]*dA*dT*dT*dA*dG*dG*dA*kA*k[5mC]*kA) [Compound 1197182]”, the “YAP1 (% UT)” value was 115 % UT.
